Experimental data as given in patent US10202361B2, “Pyridazinones as herbicides” (E I DU PONT DE NEMOURS AND COMPANY, priority 2014, dated 2019).

Columns and labels:
Experiment in all cases: Test D pre-/postemergence controlled growth environment herbicide test
Format in all cases: in vivo
Details in all cases: scale 0 to 100
[1] = system: Russian thistle (Salsola kali)
In short: (§1)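 Herbicidal effect, both preemergence (silt loam soil) and postemergence (1- to 4-leaf plants, peat-based medium), was scored 14–21 d post-treatment on a 0–100 control scale relative to untreated plants; applications used a non-phytotoxic solvent formulation with surfactant.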

[2] = system: chickweed (common chickweed, Stellaria media)
In short: as §1

[3] = system: field violet (Viola arvensis)
In short: as §1

[4] = system: foxtail, green (green foxtail, Setaria viridis)
In short: as §1

[5] = system: galium (catchweed bedstraw, Galium aparine)
In short: as §1

kochia (Kochia scoparia) = system: kochia (Kochia scoparia)
In short: as §1

[6] = system: oat, wild (wild oat, Avena fatua)
In short: as §1

[7] = system: oilseed rape (Brassica napus)
In short: as §1

[8] = system: pigweed (Amaranthus retroflexus)
In short: as §1

[9] = system: ryegrass, Italian (Italian ryegrass, Lolium multiflorum)
In short: as §1

[10] = system: wheat, winter (winter wheat, Triticum aestivum)
In short: as §1

SMILES: COc1cc(=O)n(-c2ccc(F)cc2)nc1Cc1ccnc(C(F)(F)F)c1 [Compound 17, 2-(4-fluorophenyl)-5-methoxy-6-[[2-(trifluoromethyl)-4-pyridinyl]methyl]-3 (2H)-pyridazinone]
- Plant response rating ([1]; Postemergence, 31 g ai/ha): 30
- Plant response rating ([1]; Postemergence, 62 g ai/ha): 30
- Plant response rating ([1]; Postemergence, 125 g ai/ha): 100
- Plant response rating ([1]; Postemergence, 250 g ai/ha): 100
- Plant response rating ([1]; Postemergence, 500 g ai/ha): 100
- Plant response rating ([1]; Preemergence, 31 g ai/ha): 0
- Plant response rating ([1]; Preemergence, 62 g ai/ha): 100
- Plant response rating ([1]; Preemergence, 125 g ai/ha): 100
- Plant response rating ([1]; Preemergence, 250 g ai/ha): 100
- Plant response rating ([1]; Preemergence, 500 g ai/ha): 100
- Plant response rating ([2]; Postemergence, 31 g ai/ha): 10
- Plant response rating ([2]; Postemergence, 62 g ai/ha): 40
- Plant response rating ([2]; Postemergence, 125 g ai/ha): 60
- Plant response rating ([2]; Postemergence, 250 g ai/ha): 100
- Plant response rating ([2]; Postemergence, 500 g ai/ha): 100
- Plant response rating ([2]; Preemergence, 31 g ai/ha): 100
- Plant response rating ([2]; Preemergence, 62 g ai/ha): 100
- Plant response rating ([2]; Preemergence, 125 g ai/ha): 100
- Plant response rating ([2]; Preemergence, 250 g ai/ha): 100
- Plant response rating ([2]; Preemergence, 500 g ai/ha): 100
- Plant response rating ([3]; Postemergence, 31 g ai/ha): 60
- Plant response rating ([3]; Postemergence, 62 g ai/ha): 70
- Plant response rating ([3]; Postemergence, 125 g ai/ha): 80
- Plant response rating ([3]; Postemergence, 250 g ai/ha): 100
- Plant response rating ([3]; Postemergence, 500 g ai/ha): 100
- Plant response rating ([3]; Preemergence, 31 g ai/ha): 75
- Plant response rating ([3]; Preemergence, 62 g ai/ha): 85
- Plant response rating ([3]; Preemergence, 125 g ai/ha): 90
- Plant response rating ([3]; Preemergence, 250 g ai/ha): 100
- Plant response rating ([3]; Preemergence, 500 g ai/ha): 100
- Plant response rating ([4]; Postemergence, 31 g ai/ha): 10
- Plant response rating ([4]; Postemergence, 62 g ai/ha): 10
- Plant response rating ([4]; Postemergence, 125 g ai/ha): 15
- Plant response rating ([4]; Postemergence, 250 g ai/ha): 30
- Plant response rating ([4]; Postemergence, 500 g ai/ha): 80
- Plant response rating ([4]; Preemergence, 31 g ai/ha): 15
- Plant response rating ([4]; Preemergence, 62 g ai/ha): 95
- Plant response rating ([4]; Preemergence, 125 g ai/ha): 100
- Plant response rating ([4]; Preemergence, 250 g ai/ha): 100
- Plant response rating ([4]; Preemergence, 500 g ai/ha): 100
- Plant response rating ([5]; Postemergence, 31 g ai/ha): 50
- Plant response rating ([5]; Postemergence, 62 g ai/ha): 70
- Plant response rating ([5]; Postemergence, 125 g ai/ha): 90
- Plant response rating ([5]; Postemergence, 250 g ai/ha): 98
- Plant response rating ([5]; Postemergence, 500 g ai/ha): 100
- Plant response rating ([5]; Preemergence, 31 g ai/ha): 5
- Plant response rating ([5]; Preemergence, 62 g ai/ha): 5
- Plant response rating ([5]; Preemergence, 125 g ai/ha): 20
- Plant response rating ([5]; Preemergence, 250 g ai/ha): 100
- Plant response rating ([5]; Preemergence, 500 g ai/ha): 100
- Plant response rating (kochia (Kochia scoparia); Postemergence, 31 g ai/ha): 25
- Plant response rating (kochia (Kochia scoparia); Postemergence, 62 g ai/ha): 60
- Plant response rating (kochia (Kochia scoparia); Postemergence, 125 g ai/ha): 70
- Plant response rating (kochia (Kochia scoparia); Postemergence, 250 g ai/ha): 80
- Plant response rating (kochia (Kochia scoparia); Postemergence, 500 g ai/ha): 90
- Plant response rating (kochia (Kochia scoparia); Preemergence, 31 g ai/ha): 100
- Plant response rating (kochia (Kochia scoparia); Preemergence, 62 g ai/ha): 100
- Plant response rating (kochia (Kochia scoparia); Preemergence, 125 g ai/ha): 100
- Plant response rating (kochia (Kochia scoparia); Preemergence, 250 g ai/ha): 100
- Plant response rating (kochia (Kochia scoparia); Preemergence, 500 g ai/ha): 100
- Plant response rating ([6]; Postemergence, 31 g ai/ha): 10
- Plant response rating ([6]; Postemergence, 62 g ai/ha): 10
- Plant response rating ([6]; Postemergence, 125 g ai/ha): 10
- Plant response rating ([6]; Postemergence, 250 g ai/ha): 20
- Plant response rating ([6]; Postemergence, 500 g ai/ha): 50
- Plant response rating ([6]; Preemergence, 31 g ai/ha): 0
- Plant response rating ([6]; Preemergence, 62 g ai/ha): 0
- Plant response rating ([6]; Preemergence, 125 g ai/ha): 50
- Plant response rating ([6]; Preemergence, 250 g ai/ha): 75
- Plant response rating ([6]; Preemergence, 500 g ai/ha): 85
- Plant response rating ([7]; Postemergence, 31 g ai/ha): 50
- Plant response rating ([7]; Postemergence, 62 g ai/ha): 55
- Plant response rating ([7]; Postemergence, 125 g ai/ha): 75
- Plant response rating ([7]; Postemergence, 250 g ai/ha): 85
- Plant response rating ([7]; Postemergence, 500 g ai/ha): 100
- Plant response rating ([7]; Preemergence, 31 g ai/ha): 25
- Plant response rating ([7]; Preemergence, 62 g ai/ha): 25
- Plant response rating ([7]; Preemergence, 125 g ai/ha): 40
- Plant response rating ([7]; Preemergence, 250 g ai/ha): 90
- Plant response rating ([7]; Preemergence, 500 g ai/ha): 90
- Plant response rating ([8]; Postemergence, 31 g ai/ha): 20
- Plant response rating ([8]; Postemergence, 62 g ai/ha): 30
- Plant response rating ([8]; Postemergence, 125 g ai/ha): 30
- Plant response rating ([8]; Postemergence, 250 g ai/ha): 70
- Plant response rating ([8]; Postemergence, 500 g ai/ha): 95
- Plant response rating ([8]; Preemergence, 31 g ai/ha): 10
- Plant response rating ([8]; Preemergence, 62 g ai/ha): 100
- Plant response rating ([8]; Preemergence, 125 g ai/ha): 100
- Plant response rating ([8]; Preemergence, 250 g ai/ha): 100
- Plant response rating ([8]; Preemergence, 500 g ai/ha): 100
- Plant response rating ([9]; Postemergence, 31 g ai/ha): 10
- Plant response rating ([9]; Postemergence, 62 g ai/ha): 10
- Plant response rating ([9]; Postemergence, 125 g ai/ha): 10
- Plant response rating ([9]; Postemergence, 250 g ai/ha): 15
- Plant response rating ([9]; Postemergence, 500 g ai/ha): 35
- Plant response rating ([9]; Preemergence, 31 g ai/ha): 0
- Plant response rating ([9]; Preemergence, 62 g ai/ha): 0
- Plant response rating ([9]; Preemergence, 125 g ai/ha): 0
- Plant response rating ([9]; Preemergence, 250 g ai/ha): 50
- Plant response rating ([9]; Preemergence, 500 g ai/ha): 80
- Plant response rating ([10]; Postemergence, 31 g ai/ha): 0
- Plant response rating ([10]; Postemergence, 62 g ai/ha): 5
- Plant response rating ([10]; Postemergence, 125 g ai/ha): 10
- Plant response rating ([10]; Postemergence, 250 g ai/ha): 10
- Plant response rating ([10]; Postemergence, 500 g ai/ha): 20
- Plant response rating ([10]; Preemergence, 31 g ai/ha): 0
- Plant response rating ([10]; Preemergence, 62 g ai/ha): 0
- Plant response rating ([10]; Preemergence, 125 g ai/ha): 0
- Plant response rating ([10]; Preemergence, 250 g ai/ha): 30
- Plant response rating ([10]; Preemergence, 500 g ai/ha): 90
